Test results as given in a melting point compilation (Tetko et al.; mined from patent text by program, amines drawn as free bases though some values may be those of a salt).

Compound | melting point
CC(C)(C)OC(=O)N1CCN(c2ccc3oc(C(N)=O)cc3c2)CC1 | 198 to 200 °C
Cc1c(C)c(Br)c2c(c1C)C(=O)C(C)(C)O2 | 145 to 146 °C
CSc1nc2ccc(Cl)cc2cc1C=O | 154 to 155 °C
CCc1ccc(Nc2nc3cc(NC(=O)c4ccc(Cl)c(Cl)c4)ccc3o2)cc1 | > 250 °C
CCCn1nc2c(N)nc3ccccc3c2c1CCCc1cc(-c2cccnc2)on1 | 196 to 198 °C
CCCN(CCC)Cc1nnc(-c2ncn3c2CN(C)C(=O)c2c(Cl)cccc2-3)o1 | 188 to 195 °C
Cc1cccc(NC(=O)NC(Cc2ccccc2)C(=O)N(CC(=O)OC(C)(C)C)c2ccccc2)c1 (racemic) | 198 °C
CSCCC(NC(=O)OCc1ccccc1)C(N)=O (racemic) | 120 to 122 °C
Cc1cc(C)nc(NC#N)n1 | 205 °C
Cn1c2c(c3cccc(OCc4ccccc4)c31)C(=O)NCC2 | 199 to 201 °C
N#Cc1ccc(C(=O)N2CC2C#N)cc1 (configuration not stated) | 107 to 110 °C
CCCCNC(=O)Nc1ccc(OC(=O)NCCCC)cc1C(=O)NCC1CCN(C(c2ccccc2)c2ccccc2)CC1 | 197 to 199 °C
O=C(O)c1ccccc1C(=O)N1Cc2cccn2Cc2ccccc21 | 210 to 214 °C
O=C1OC(=O)c2cnccc21 | 72 to 74 °C
CCN(CC)c1ccc(-c2cc(-c3ccc(C(=O)O)cc3)ccc2CCCNC2CCCCC2)cc1C(C)(C)C | 253 °C
O=C(O)CCC(=O)c1ccc(NC(=O)c2cccc(F)c2)cc1 | 239 to 241 °C
CCC(OC(=O)C1CC1)c1ccc(Cl)c2nc3n(c12)CCCN3c1ncc(Cl)cc1Cl (configuration not stated) | 154 to 155 °C
Fc1cccc(C(c2ccnc3ccccc23)n2ccnc2)c1 (configuration not stated) | 140 °C
CCOC(=O)c1cnoc1-c1ccc(Cl)s1 | 74 to 75 °C
Cc1ccc(-c2c(C(=O)Nc3nccs3)nc(-c3cccc4ccccc34)n2C)cc1 | 251 to 252 °C
CCOC(=O)c1c(CS(=O)(=O)c2nc3ccccc3[nH]2)nc2cc(OC)c(OC)cc2c1-c1ccc(OC)c(OC)c1 | 181 to 182 °C
CCOC(=O)c1ccc2cc(N=[N+]=[N-])ccn2c1=O | 145 to 150 °C
FC(F)(F)Oc1ccc(-c2csc(Nc3cc4ccccc4cn3)n2)cc1 | 269 to 271 °C
COc1c(C)oc2c(-n3c(=O)cc(C(F)(F)F)n(C)c3=O)c(F)cc(Cl)c12 | 57 to 60 °C
CS(=O)(=O)c1ccc(-n2nc(C(F)(F)F)cc2-c2nc3ccc(F)cc3o2)cc1 | 216 to 218 °C

Compound | melting point
CS(=O)c1cccc(S(N)(=O)=O)c1 (configuration not stated) | 217 to 221 °C
Cc1ccc(N2Cc3ccccc3P2(=O)C(C)C)cc1 (configuration not stated) | 135 to 137 °C
COc1ccccc1N1CCN(CCNC(=O)CCN2CCC(c3c[nH]c4cc(Cl)ccc34)CC2)CC1 | 69 to 71 °C
CCOC(=O)C1Cc2cc3c(C)noc3c(Cl)c2O1 (configuration not stated) | 123 to 124 °C
CC1(C)COP(N(CCCCCCN(C2CC(C)(C)NC(C)(C)C2)P2OCC(C)(C)CO2)C2CC(C)(C)NC(C)(C)C2)OC1 | 103 °C
O=C(NN1CCCCC1)C1=NN(c2ccc(Cl)cc2Cl)C(c2ccc(Cl)cc2)C1 (configuration not stated) | 75 to 78 °C
Cc1nc(N2CCN(Cc3c(C)noc3-c3ccccc3)C2=O)sc1C(=O)NCc1cccnc1 | 109 to 111 °C
O=C(O)c1nn(-c2ccc(F)cc2F)c2c1[C@H]1CC[C@@H]2C1 | 110 to 112 °C
COc1cc(C(F)(F)F)nc(S(C)(=O)=O)n1 | 88 to 90 °C
CC1CN(C)CC(C)(c2cccc(O)c2)O1 (configuration not stated) | 142 to 143 °C
C#CC1(O)CCC2(C)C(CCC3C2CCC2(C)C(C(C)=O)CCC32)C1 (configuration not stated) | 196 to 197 °C
O=C1Nc2c(F)cc(CN3C(=O)CSC3=O)cc2C1=Cc1cc(CN2CCOCC2)c[nH]1 | 246 to 248 °C
CN(Cc1cc(C(F)(F)F)cc(C(F)(F)F)c1)C(=O)c1c(-c2ccc(F)cc2)c2c(c(=O)n1C)CNCC2 | 178 to 180 °C
CN(C)CCC1CCCCN1CC(=O)N1c2ccccc2NC(=O)c2ccccc21 (configuration not stated) | 155 to 157 °C
CC1(C)CC2(CC(C)(C)N1)NC(C)(CO)CO2 (configuration not stated) | 90 to 92 °C
CCNC(=O)c1nc(-c2ccc(C)c(C)c2)n(-c2cc(Cl)ccc2C)c1-c1cccc(Cl)c1 | 141 to 143 °C
CC1(C)CCC(C)(C)c2cc(C(=O)C(=O)Nc3ccc(C(=O)O)cc3)ccc21 | 216 to 217 °C
Clc1ccc(CC2(c3cccnc3)OCCO2)c(Cl)c1 | 76 to 78 °C
OCC1(CO)COC(c2nc(-c3ccccc3)c(-c3ccccc3)n2Cc2ccccc2)OC1 | 186 to 188 °C
O=C(CN1CCN(C(=O)c2cc(C(F)(F)F)cc(C(F)(F)F)c2)[C@H](Cc2c[nH]c3ccccc23)C1)c1ccc(F)cc1 | 95 to 105 °C
O=C1N(Cc2ccc(-c3ccno3)cc2)c2ccccc2C12COc1cc3c(cc12)OCCO3 (configuration not stated) | 209 to 212 °C
CCC(=O)NC(C)(C)CSc1cc(C)c(Cl)cc1C | 78 to 81 °C
CCCc1c(C#CCCCCOc2ccccc2CCC(=O)O)ccc2c1OCCC2=O | 88 to 92 °C
CCCN(CCC)[C@@H]1CCc2ccc(C(N)=O)cc2C1 | 132 °C
FC(F)(F)COc1ccnc(Oc2ccc(CCNc3ncnc4nccnc34)cc2)c1 | 166 °C

Compound | melting point
COC(=O)c1cc(-c2ccc(C)cc2)c(O)c(C(C)(C)C)c1 | 105 °C
CNCc1nc(-c2cc(C(C)(C)C)c(O)c(C(C)(C)C)c2)cs1 | 136 °C
CC(C)c1ccc(O)c(C(C)C)c1NC(=O)CN1CCN(CCSc2nc3ccccc3o2)CC1 | 96 to 98 °C
O=C(Nc1ccc(C(=O)N2CCc3sc(Cc4ccccn4)nc3-c3ccccc32)cc1)c1ccccc1-c1ccccc1 | 215 to 218 °C
CN(C)C1(c2cccc(F)c2)CCC(=CC(=O)NCCc2c[nH]c3ccccc23)CC1 (configuration not stated) | 172 to 176 °C
Cn1c(C(F)(F)F)cc(=O)n(-c2ccc3snc(C=C(Br)Br)c3c2)c1=O | 260 to 262 °C
Cn1nc(C#N)c(Nc2ccccc2[N+](=O)[O-])n1 | 144 to 145 °C
O=C/C=C/c1cc2ccccc2o1 | 67 °C
NCC(=O)N1Cc2ccccc2Oc2ccc(Cl)cc21 | 108 to 109 °C
CCOP(=O)(OCC)C(O)c1ccc([N+](=O)[O-])cc1 (configuration not stated) | 94 to 95 °C
Cc1cn(-c2cc(C=O)c(N)c(C(F)(F)F)c2)c(C)n1 | 200 to 202 °C
O=c1c(CCCc2nccs2)cc2cccnc2n1-c1cccc([N+](=O)[O-])c1 | 198 to 199 °C
O=C(O)CCNC(=O)c1ccc(N(Cc2ccc(C3=CCCCC3)cc2)C(=O)C=Cc2cccc(OC(F)(F)F)c2)cc1 | 178 to 180 °C
Clc1ccc(COC(CNc2ccc(Cl)cc2Cl)Cn2ccnc2)cc1 (configuration not stated) | 93 to 95 °C
Fc1cc(Br)c2ccccc2c1Cl | 75 to 76 °C
COC(=O)COc1coc2ccccc2c1=O | 114 to 116 °C
O=C(CCc1ccc(O)c(Cl)c1)C1CCCC1 | 88 to 90 °C
COc1ccc(CC2CCN(CCS(=O)c3ccc4[nH]c(=O)oc4c3)CC2)cc1 (configuration not stated) | 169 to 170 °C
CC/C=C\CCCCCCCCCCOc1ccc(C(=O)O)o1 | 89 to 90 °C
CCN1C(=O)C(C)(C)C(=O)N(C)c2cc(CN(CCn3ccc4oc(C)cc4c3=O)Cc3ccccc3-n3cccn3)ccc21 | 123 to 130 °C
Cc1cc(Cc2ccccc2)c(NC(=O)NCc2ccccc2)c(=O)n1CC(=O)O | 176 °C
Nc1nc2ccccc2c2c1ncn2CCCCNC(=O)Oc1cccc2ccccc12 | 89 to 92 °C
COC(=O)C(C)C1CCC2C3CC=C4CC(OC(C)=O)CCC4(C)C3CCC12C (configuration not stated) | 140 to 142 °C
Cc1cnc(CS(=O)c2cc3ccccc3[nH]2)cc1N1CCCCC1 (configuration not stated) | 178 °C
CC(C)(C)NCCOc1ccccc1CCCc1cccc2[nH]ccc12 | 114 °C

Compound | melting point
CCOC(=O)C(=O)c1ccc(OC)s1 | 136 to 137 °C
CCOc1cc([C@@H](CC(=O)N(C)C)N2Cc3cccc(NC(=O)N(C)C)c3C2=O)ccc1OC | 105 to 107 °C
COc1ccc(C(C#N)CNC(N)=O)cc1OC1CCCC1 (configuration not stated) | 55 to 61 °C
Cc1ccc(S(=O)(=O)N2CCN(Cc3ccccc3)CCN(S(=O)(=O)c3ccc(C)cc3)CCN(S(=O)(=O)c3ccc(C)cc3)CC2)cc1 | 208 to 210 °C
COc1cc(CC(=O)O)c(C(=O)O)cc1OC | 217 to 219 °C
CCOC(=O)C(C)(C)CCCCOc1ccc(NC(=O)CCCCCn2ccnc2)cc1 | 64 to 65 °C
Cc1cc(CCCCCOc2ccc(C3=NCCO3)cc2C=CBr)on1 | 94 to 96 °C
CNC(C)Cn1nc(Cl)c2cc3ccc(OC)cc3nc21 (configuration not stated) | 98 to 100 °C
Cc1c(O)c(O)cc2ccccc12 | 97 to 100 °C
Cc1ccc2c3c(ccc2n1)OCC(CN1C2CCC1CC(O)(c1cccc(C(F)(F)F)c1)C2)O3 (configuration not stated) | 146 to 150 °C
C=c1c(=O)[nH]c2n1Cc1cc(OCCCC(=O)N(C)C3CCCCC3)ccc1N=2 | 176 to 178 °C
CC(C)Nc1cccnc1N1CCN(C(=O)c2ccc(C(=O)N(C)CCO)cc2)CC1 | 131 to 132 °C
N#Cc1cnc2sc(CCC(=O)O)cc2c1Nc1ccc2[nH]ccc2c1 | 255 °C
COc1ccc2ccc3nc(C(N)=O)cn3c2c1 | 273 to 276 °C
CN1CCN(Cc2ccc3c(c2)Cc2c(-c4ccsc4)n[nH]c2-3)CC1 | 115 to 117 °C
COc1cc2c(=O)c(C#N)c[nH]c2cc1F | 147 to 149 °C
C1=CC[C@@]2(Cc3ccccc3)CN(Cc3ccccc3)C[C@H]2C1 (relative stereo) | 142 to 144 °C
Cc1cc(-n2cnn(Cc3ccc(F)cc3)c2=O)sc1C(=O)NCc1cccnc1 | 180 to 182 °C
CCCn1nc2c(N)nc3ccccc3c2c1CC1(O)CCC1 | 191 to 193 °C
CCn1cc(C(=O)O)c(=O)cc1-c1ccccc1 | 166 to 167 °C
CC[C@H](C)[C@H](NC(=O)NC(C)C)C(=O)N[C@H](CO)Cc1c[nH]c2ccccc12 | 211 to 213 °C
CN(C)CCC1Cc2ccccc2C(C)(O)c2ccccc21 (configuration not stated) | 162 °C
